# Assay results from patent US8084479B2, “Thiazole compounds and methods of use” (Amgen Inc., priority 2006, dated 2011).
# pIC50: −log10 of the molar value.
# Target: PKBα (Homo sapiens, UniProt P31749)
# Experiment: PKB kinase assay (P33-labeled ATP, peptide substrate, filter plate)
# Format: biochemical
# Settings: PKBα enzyme (full length or kinase domain with pleckstrin domain deleted)
# Excerpt: The kinase assay for evaluating PKB activity comprises active PKB enzymes, a PKB specific substrate, and P^33-labeled ATP. […] The phosphorylated substrate was captured by a phosphocellulose membrane filter plate (MLLIPORE) and measured by a Wallac Microbeta liquid scintillation counter (Perkin Elmer).
# Chain of PKBα (P31749 118-480 limits assumed): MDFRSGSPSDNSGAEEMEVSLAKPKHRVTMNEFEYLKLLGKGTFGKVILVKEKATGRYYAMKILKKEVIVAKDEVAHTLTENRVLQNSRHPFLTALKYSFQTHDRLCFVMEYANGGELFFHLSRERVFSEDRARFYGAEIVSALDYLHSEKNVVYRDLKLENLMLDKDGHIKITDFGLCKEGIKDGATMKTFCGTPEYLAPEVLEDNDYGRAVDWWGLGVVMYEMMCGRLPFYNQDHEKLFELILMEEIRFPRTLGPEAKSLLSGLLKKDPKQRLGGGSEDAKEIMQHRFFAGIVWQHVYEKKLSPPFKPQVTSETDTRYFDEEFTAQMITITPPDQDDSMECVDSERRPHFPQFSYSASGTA
row,SMILES,pIC50
1,"N[C@H](CNc1ncc(-c2ccc3cnccc3c2)s1)Cc1ccc2ccccc2c1 [Example 202, N—((S)-2-amino-3-(naphthalen-2-yl)propyl)-5-(isoquinolin-6-yl)thiazol-2-amine]",> 7.30
2,"Nc1cc2cc(-c3cnc(NC[C@@H](N)Cc4ccc(C(F)(F)F)cc4)s3)ccc2cn1 [Example 75, 6-(2-((S)-2-Amino-3-(4-(trifluoromethyl)phenyl)propylamino)thiazol-5-yl)isoquinolin-3-amine]",> 7.30
3,"C[C@@H](c1ccc(C(F)(F)F)cc1)[C@H](N)CNc1ncc(-c2cc(F)c3c(c2)CC(=O)N3)s1 [Example 222, 5-(2-((2S,3S)-2-amino-3-(4-(trifluoromethyl)phenyl)butylamino)thiazol-5-yl)-7-fluoroindolin-2-one]",6.00 to 7.30
4,"N[C@H](CNc1ncc(-c2ccc3nnccc3c2)s1)Cc1ccc(C(F)(F)F)cc1 [Example 254, N—((S)-2-amino-3-(4-(trifluoromethyl)phenyl)propyl)-5-(cinnolin-6-yl)thiazol-2-amine]",6.00 to 7.30
5,"N#Cc1ccc(-c2cnc(NC[C@@H](N)Cc3ccc(C(F)(F)F)cc3)s2)cc1F [Example 166, 4-(2-((S)-2-amino-3-(4-(trifluoromethyl)phenyl)propylamino)thiazol-5-yl)-2-fluorobenzonitrile]",6.00 to 7.30
6,"N[C@H](CNc1ncc(-c2ccc3cnccc3c2)s1)Cc1ccc(Cl)c(Cl)c1 [Example 132, N—((S)-2-Amino-3-(3,4-dichlorophenyl)propyl)-5-(isoquinolin-6-yl)thiazol-2-amine]",> 7.30
7,"CC(=O)OC[C@@H](c1ccc(C(F)(F)F)cc1)[C@H](N)CNc1ncc(-c2ccc3c(c2)CC(=O)N3)s1 [Example 248, (2S,3S)-3-amino-4-(5-(2-oxoindolin-5-yl)thiazol-2-ylamino)-2-(4-(trifluoromethyl)phenyl)butyl acetate]",6.00 to 7.30
8,"NC(CNc1ncc(-c2ccc3c(c2)CC(=O)N3)s1)Cc1ccc(OC(F)(F)F)cc1 (stereo not drawn) [Example 188, 5-(2-(-2-amino-3-(4-(trifluoromethoxy)phenyl)propylamino)thiazol-5-yl)indolin-2-one]",> 7.30
9,"N[C@H](CNc1ncc(-c2ccc3cnccc3c2)s1)Cc1ccc(C(F)(F)F)c(O)c1 [Example 208, 5-((S)-2-amino-3-(5-(isoquinolin-6-yl)thiazol-2-ylamino)propyl)-2-(trifluoromethyl)phenol]",> 7.30
10,"N[C@H](CNc1ncc(-c2ccc3c(c2F)CC(=O)N3)s1)Cc1ccc(C(F)(F)F)cc1 [Example 224, 5-(2-((S)-2-amino-3-(4-(trifluoromethyl)phenyl)propylamino)thiazol-5-yl)-4-fluoroindolin-2-one]",> 7.30
11,"N[C@H](CNc1nc(CO)c(-c2ccc3[nH]c(=O)oc3c2)s1)Cc1ccc(C(F)(F)F)cc1 [Example 125, 6-(2-((S)-2-Amino-3-(4-(trifluoromethyl)phenyl)propylamino)-4-(hydroxymethyl)thiazol-5-yl)benzo[d]oxazol-2(3H)-one]",> 7.30
12,N[C@H](CNc1ncc(-c2ccc3[nH]c(=O)oc3c2)s1)Cc1ccc(C(F)(F)F)c(O)c1 [Example 210],> 7.30
13,"C[C@H](Nc1ncc(-c2ccc3[nH]c(=O)oc3c2)s1)[C@@H](N)Cc1ccc(C(F)(F)F)cc1 [Example 236, 6-(2-((2S,3S)-3-amino-4-(4-(trifluoromethyl)phenyl)butan-2-ylamino)thiazol-5-yl)benzo[d]oxazol-2(3H)-one]",5.00 to 6.00
14,"N[C@H](CNc1ncc(-c2ccc3[nH]c(=O)oc3c2)s1)Cc1ccc(F)c(F)c1 [Example 127, 6-(2-((S)-2-Amino-3-(3,4-difluorophenyl)propylamino)thiazol-5-yl)benzo[d]oxazol-2(3H)-one]",6.00 to 7.30
15,"N[C@H](CNc1ncc(-c2ccc3c(c2)CC(=O)N3)s1)Cc1ccc(Cl)cc1 [Example 54, 5-(2-((S)-2-Amino-3-(4-chlorophenyl)propylamino)thiazol-5-yl)indolin-2-one]",> 7.30
